Results on 12 compounds are retold here after ChEMBL document CHEMBL4665842, “Sortase A-Inhibitory Coumarins from the Folk Medicinal Plant Poncirus trifoliata” (J Nat Prod, 2020).

Experiment [1] can be described thus: Inhibition of recombinant Staphylococcus aureus ATCC 6538p sortase A using dabcyl-LPETG-edans as substrate incubated for 2 hrs by fluorometric method.
For experiment [2], the system named is Staphylococcus aureus. Description: Antimicrobial activity against Staphylococcus aureus ATCC 6538p. It counts as functional.
Experiment [3] has as its system Staphylococcus aureus. As to the kind of experiment: Inhibition of Staphylococcus aureus Newman sortase A assessed as […] in fibrinogen-mediated cell clumping after 2 hrs. The settings on record: dose microM 25-100, time 2.0 hrs.
Experiment [4] concerns Staphylococcus aureus. Description: Inhibition of Staphylococcus aureus Newman sortase A assessed as […] in fibrinogen-mediated cell clumping at 100 uM after 2 hrs.
In experiment [5] the test system is Staphylococcus aureus. Description: Inhibition of Staphylococcus aureus Newman sortase A assessed as reduction in bacterial adherence to fibronectin-coated surfaces up to 4 times of IC50 concentration for every 30 mins for 2.5 hrs. The note with it: time hrs <=2.5.

SMILES strings stand for the structures. Converted amounts (≈) assume the structure as drawn. The source made the active and inactive calls. The rule behind the calls is not given here. Some results are limits rather than exact numbers.

As to `COC(C)(C)[C@H](O)COc1ccc2ccc(=O)oc2c1C[C@H](O)C(C)(C)O`, in experiment [1], the IC50 came out at 76 µM. In the experiment with Staphylococcus aureus [2], the MIC is more than 337 µM.

In the case of `CC(C)(O)[C@H](O)COc1ccc2ccc(=O)oc2c1C[C@H](O)C(C)(C)O`, the IC50 in experiment [1] amounted to 47.2 µM. In the experiment on Staphylococcus aureus [2], the MIC is more than 350 µM. In addition, in the experiment on Staphylococcus aureus [3], the inhibition result is “Dose-dependent effect”. The fold change (FC) with Staphylococcus aureus [4] was more than 2.

For the compound `COC(C)(C)[C@H](O)COc1ccc2ccc(=O)oc2c1CC(=O)C(C)C`, the IC50 in experiment [1] was 119 µM. The same compound showed an MIC in the experiment on Staphylococcus aureus [2] of more than 353 µM.

For the compound `CC(C)(O)[C@H](O)COc1c2ccoc2cc2oc(=O)ccc12` [OXYPEUCEDANIN HYDRATE], the IC50 in experiment [1] is 230 µM. For the same compound, the MIC against Staphylococcus aureus [2] is more than 421 µM.

Regarding `O=C(O)/C=C/c1ccc(O)cc1` [COUMARIC ACID], the IC50 in experiment [1] was more than 780 µM. In addition, the MIC against Staphylococcus aureus [2] was more than 780 µM.

As for `COC(C)(C)[C@@H](O)Cc1c(OC[C@@H](O)C(C)(C)O)ccc2ccc(=O)oc12`, the IC50 in experiment [1] came to 26.6 µM. For the same compound, the MIC against Staphylococcus aureus [2] is more than 337 µM. The inhibition entry in the experiment on Staphylococcus aureus [3] is “Dose-dependent effect”. Also, the fold change (FC) in the experiment on Staphylococcus aureus [4] is more than 2. The inhibition result with Staphylococcus aureus [5] was “Active”.

Compound `CC1(C)S[C@@H]2[C@H](NC(=O)[C@H](N)c3ccccc3)C(=O)N2[C@H]1C(=O)O` [AMPICILLIN] came in with an MIC against Staphylococcus aureus [2] of 0.18 µM (≈ 0.0629 µg/mL).

Take `CC(C)C(=O)Cc1c(OC[C@@H](O)C(C)(C)O)ccc2ccc(=O)oc12`: the IC50 in experiment [1] turned out to be 34.5 µM. In the experiment with Staphylococcus aureus [2], this compound had an MIC of more than 368 µM. The inhibition entry with Staphylococcus aureus [3] was “Dose-dependent effect”. The fold change (FC) in the experiment with Staphylococcus aureus [4] is more than 2. In addition, the inhibition entry in the experiment with Staphylococcus aureus [5] is “Active”.

For `C=C(C)[C@H](O)COc1ccc2ccc(=O)oc2c1CC(=O)C(C)C`, the IC50 in experiment [1] was determined as 112 µM. The same compound came in with an MIC with Staphylococcus aureus [2] of more than 388 µM.

Turning to `O=c1ccc2ccc(O)cc2o1` [UMBELLIFERONE], in the experiment with Staphylococcus aureus [2], the minimum inhibitory concentration (MIC) was more than 790 µM.

As to `C=C(C)[C@H](CC/C(C)=C/COc1ccc2ccc(=O)oc2c1)OO`, the IC50 in experiment [1] is 23.5 µM. Also, in the experiment with Staphylococcus aureus [2], the MIC was more than 388 µM. Moreover, in the experiment on Staphylococcus aureus [3], the inhibition result was “Dose-dependent effect”. The fold change (FC) in the experiment with Staphylococcus aureus [4] is more than 2.

As for `C/C(=C\COc1ccc2ccc(=O)oc2c1)C/C=C/C(C)(C)OO`, the IC50 in experiment [1] stood at 19.1 µM. The same compound showed an MIC against Staphylococcus aureus [2] of more than 388 µM. In the experiment on Staphylococcus aureus [3], the inhibition entry is “Dose-dependent effect”. Also, the fold change (FC) in the experiment with Staphylococcus aureus [4] was more than 2. Further, the inhibition result in the experiment on Staphylococcus aureus [5] is “Active”.

One may read the IC50 as the concentration that gives 50% inhibition. In general, MIC refers to the lowest concentration found to suppress growth. Low values mean a more susceptible organism, high ones a less susceptible organism.
